Results on six compounds are retold here after US7001924B2, “Inhibitors of RNase P proteins as antibacterial compounds” (Message Pharmaceuticals, priority 2001, dated 2006).

“Also recorded” adds a separate entry of the source. Structures can show the parent of a compound that is named as a salt.

The subject of experiment [1] is N. gonorrhea RNase P (M1 RNA and C5 protein). Kind of experiment: RNase P inhibition assay (fluorescence polarization, ptRNA Gln cleavage). The class given is biochemical. As to conditions: tested at 0.3, 1, 3 and 10 μM, result in words, numbers only in figures. The text has this:
The ability of compounds of the invention to inhibit RNase P enzymes can be assessed by standard techniques. For example, the cleavage of ptRNA^Gln by the enzyme N. Gonorrhea RNase P, can be monitored in the presence and absence of a candidate compound as described in the Example 23. The progress of the RNase P-mediated cleavage reaction can be assessed by measuring the fluorescence polarization level of the TAMRA moiety hybridized to the cleaved substrate
Compounds of the invention (see Table 1 and FIG. 3) were assayed for inhibition of RNase P activity. The assay components were the M1 RNA and C5 protein from N. gonorrhea and a model precursor tRNA substrate derived from Synechocystis ptGLN. The compounds were diluted in assay buffer (50 mM Tris-HCl, pH 7.5/100 mM […]/10 mM MgCl2/1 mM DTT/1 mg/ml BSA) from 2 μL of a 1 mM DMSO stock solutions in 384 well polypropylene plates to a concentration of 40 μM. 12.5 μL of each compound dilution was transferred to empty duplicate wells of two 384-well black polystyrene assay plates. One assay plate received 37.5 μL of assay buffer plus 12.5 μL of stop buffer (25 mM EDTA/1.25×SSC Buffer in PA buffer; SSC=150 mM NaCl, 15 mM sodium citrate and PA=50 mM TRIS hydrochloride, 100 mM ammonium chloride, 10 mM magnesium chloride) and was read immediately on a LJL Analyst fluorimeter to serve as a background fluorescence plate. The other plate sequentially received the following reagents diluted in assay buffer, 12.5 μL of 0.4 nM M1 RNA, 12.5 μL of 2 nM C5 protein, and 12.5 μL of 160 nM substrate. Wells were included that receive neither the M1 RNA nor the C5 protein to serve as no-enzyme controls. The enzymatic reaction was allowed to proceed for 30 minutes and was stopped by the addition of 12.5 μL per well of stop buffer containing 20 nM of a DNA-5′ TAMRA probe complementary to the 5′ end of the substrate. The probe was allowed to hybridize to the substrate for 2 hours, and the polarization status of the probe was measured using the LJL Analyst fluorimeter. All compounds were tested at 0.3 μM, 1 μM, 3 μM, and 10 μM concentrations. The results, which are expressed as a percentage of the control, were calculated using equation 1. In this equation, f is the fluorescence in counts per second; (f.enzyme+probe) is the fluorescence observed when enzymatic activity is uninhibited; (f.probe) is the fluorescence observed without enzymatic activity; and (f.compound+enzyme+probe) is the fluorescence observed when the enzymatic activity is modulated by a compound of the invention. Assay results for MES 35793 are shown in FIG. 7, and assay results for MES 31242, MES 82794, and MES 35793 are shown in FIG. 8. Other candidate RNase P inhibitors may be tested similarly using any RNase P holoenzyme and any appropriate RNase P substrate. [formula]
In general terms: In fluorescence polarisation assays a small probe gives low polarisation when free and higher when bound to something large.

In another experiment the test system is S. aureus. The experiment can be described thus: Bacterial inhibition assay, S. aureus growth. The class given is cell-based. As to conditions: tested at 1, 3 and 10 μM, result in words. As to the method: (§1) Compounds of the invention (see Table 1 and FIG. 3) were assayed for their ability to inhibit bacterial growth. Compounds were diluted from 10 mM DMSO stocks to 3 mM and 1 mM in DMSO. The compounds were further diluted from these stocks into saline for 200, […], and 20 μM stocks. Control antibiotics were diluted similarly. Overnight cultures of bacteria were made in the following manner. N. gonorrhea was streaked onto a chocolate agar plate and incubated at 35° C./5% CO2. A loopful from a stock plate of E. coli was added to 3 mL TSB medium, vortexed and incubated at 37° C. in the absence of CO2. An S. aureus culture was made as described for the E. coli culture, except that a nutrient broth was used instead of TSB medium. […]
(§2) On the following day bacteria were prepared by dilution into saline with O.D. 625 nM readings taken to determine the concentration of the bacteria. CFUs (colony forming units) were determined using the formula: CFU/mL=OD625×(1.5×10^8 CFU/mL/OD McFarland std)×dilution. […] Plates were incubated at 35° C. with O2 for 16-20 hours for S. aureus, S. pyogenes, and E. coli and read at OD665 in the Victor2 plate reader. […] The plates were read at OD490. […] The results, which are expressed as a percentage of the control, were calculated using equation 2. […]

The test system of experiment [2] is bacterial growth (N. gonorrhea, E. coli, S. aureus, S. pyogenes). The experiment can be described thus: Bacterial inhibition assay (species not stated). The class given is cell-based. The following applies: tested at 1, 3 and 10 μM; species not given, refers to FIGS. 1A-2. As for the experimental part:
The ability of compounds of the invention to inhibit bacterial growth can also be assessed by standard testing procedures, such as monitoring bacterial growth in the presence of one or more candidate compound. Any reduction in bacterial growth, in comparison to an uninhibited control, is a measure of the antibacterial activity of the compound. The antibacterial activity of some compounds of the invention were measured against N. gonorrhea, E. coli, S. aureus, and S. pyogenes (Example 23).
Compounds of the invention (see Table 1 and FIG. 3) were assayed for their ability to inhibit bacterial growth. Compounds were diluted from 10 mM DMSO stocks to 3 mM and 1 mM in DMSO. The compounds were further diluted from these stocks into saline for 200, 120, and 20 μM stocks. Control antibiotics were diluted similarly. Overnight cultures of bacteria were made in the following manner. N. gonorrhea was streaked onto a chocolate agar plate and incubated at 35° C./5% CO2. A loopful from a stock plate of E. coli was added to 3 mL TSB medium, vortexed and incubated at 37° C. in the absence of CO2. An S. aureus culture was made as described for the E. coli culture, except that a nutrient broth was used instead of TSB medium. Rather than make an overnight culture of S. pyogenes, a loopful of S. pyogenes from a blood plate or a stock plate was used the following day for direct cell suspension.
On the following day bacteria were prepared by dilution into saline with O.D. 625 nM readings taken to determine the concentration of the bacteria. CFUs (colony forming units) were determined using the formula: CFU/mL=OD625×(1.5×10^8 CFU/mL/OD McFarland std)×dilution. The four bacterial cultures were diluted initially to 5.5×10^7 CFU/mL. The bacteria were then further diluted into medium to 5.5×10^5 CFU/mL for S. aureus, S. pyogenes and E. coli and 5.5×10^6 CFU/mL for N. gonorrhea. S. aureus and E. coli are grown in CAMHB medium and S. pyogenes and N. gonorrhea in CAMHB-3% LHB medium. The bacteria were added one per plate at 200 μL per well. Compounds were added in 10 μL for final concentrations of 10, 3 and 1 μM in duplicate. Control antibiotics for S. aureus, oxacillin; for S. pyogenes, penicillin; for E. coli, ampicillin; and for N. gonorrhea, ciprofloxacin were added from 0.8 mg/ml to 0.003 mg/ml. Plates were incubated at 35° C. with O2 for 16-20 hours for S. aureus, S. pyogenes, and E. coli and read at OD665 in the Victor2 plate reader. Plates were incubated at 35° C. with 5% CO2 for 24 hours for N. gonorrhea at which time 40 μL of MTS reagent is added per well and incubated for 1 hour in same incubator. The plates were read at OD490. Compounds were tested at 1 μM, 3 μM, and 10 μM concentrations. The results, which are expressed as a percentage of the control, were calculated using equation 2. […]

The test system of a further experiment is N. gonorrhea. Kind of experiment: Bacterial inhibition assay, N. Gonorrhea growth. The class given is cell-based. As to conditions: tested at 1, 3 and 10 μM, result in words. As to the method:
as §1, §2

On to `C/C(=N\NC(=N)N)c1ccc(NC(=O)CNC(=O)c2cccc(/C(C)=N/NC(=N)N)c2)cc1` [MES 10635, Bisguanylhydrazone trifluoroacetic acid salt of N′-(3-acetylbenzoyl)-N-(4-acetylphenyl)glycinamide], for which the “inhibition of RNase P activity (fluorescence data, percentage of the control)” value in experiment [1] is recorded as “inhibitors of RNase P activity; also recorded: can inhibit a representative RNase P”. For the same compound, the “inhibition of bacterial growth, S. aureus data” value in the experiment on S. aureus is “can inhibit bacterial growth”. For the same compound, the “inhibitors of bacterial growth (summary statement)” value (shortened to “inhibitors”) in experiment [2] is recorded as “inhibitors of bacterial growth”.
Regarding `C/C(=N\NC(=N)N)c1ccc(NC(=O)[C@H](Cc2ccccc2)NC(=O)c2cccc(/C(C)=N/NC(=N)N)c2)cc1` [MES 10636, Bisguanylhydrazone trifluoroacetic acid salt of N′-(3-acetylbenzoyl)-N-(4-acetylphenyl)phenylalaninamide], the “inhibition of RNase P activity (fluorescence data, percentage of the control)” value is on record as “can inhibit a representative RNase P” in experiment [1] and “inhibitors of RNase P activity” in experiment [1] (listed as MES10636). For the same compound, the “inhibition of bacterial growth, S. aureus data” value with S. aureus was “can inhibit bacterial growth”. In experiment [2], the “inhibitors” value is “inhibitors of bacterial growth”.
Regarding `CCN1/C(=C\C=c2/s/c(=C\c3sc4ccccc4[n+]3CC)n(CC)c2=O)Sc2ccccc21` [MES 35793], the “inhibition of RNase P activity (fluorescence data, percentage of the control)” value in experiment [1] is “can inhibit RNase P activity; also recorded: can inhibit a representative RNase P”. For the same compound, in the experiment on N. gonorrhea, the “inhibition of bacterial growth, N. Gonorrhea growth data” value was “can inhibit bacterial growth”. For the same compound, the “inhibitors” value in experiment [2] is “inhibitors of bacterial growth”.
Turning to `CCN1/C(=C/C=C/c2sc3c4ccccc4ccc3[n+]2CC)Sc2cc(C)c(C)cc21` [MES 31242], the “inhibition of RNase P activity (fluorescence data, percentage of the control)” value in experiment [1] is “can inhibit a representative RNase P”.
The same measure, in the same setting: the value for `CCN1/C(=C/c2sc3ccc(O)cc3[n+]2CC)C=Cc2ccc(C)cc21` [MES 82794] was “can inhibit a representative RNase P”.
Take `C/C(=N\NC(=N)N)c1cccc(C(=O)NCCNC(=O)c2cccc(/C(C)=N/NC(=N)N)c2)c1` [MES 10609, bisguanylhydrazone of N-(N′-2-(3-acetylbenzamido)-ethyl)-3-acetylbenzamide]: the “inhibition of RNase P activity (fluorescence data, percentage of the control)” value in experiment [1] is “can inhibit RNase P activity”; in experiment [1] (listed as MES10609), “inhibitors of RNase P activity”. For the same compound, in the experiment with N. gonorrhea, the “inhibition of bacterial growth, N. Gonorrhea growth data” value is on record as “can inhibit bacterial growth”. Moreover, the “inhibitors” value in experiment [2] is given as “inhibitors of bacterial growth”.
